In brackets after ≈: the same amount, converted by molar mass. Counter-ions that a name gives are not always drawn. Like-named read-outs stand apart in the source and are kept apart here.
What was measured:
Assay type in all cases: cell-based
[1] = system: E. faecium ATCC 35667; assay: In vitro antibacterial evaluation, MIC by agar dilution, E. faecium ATCC 35667; conditions: Enterococcus faecium, ATCC35667, read-out: MIC
In short: (§1)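 Log-phase isolates were spot-inoculated at about 10^4 cfu per spot onto Mueller-Hinton agar plates containing twofold compound dilutions (highest working concentration 128 μg/mL, lowest ≤0.25 μg/mL, duplicates). After 16-20 h at 35-36 °C, the lowest growth-inhibiting level was taken as MIC, per NCCLS agar dilution.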

[2] = system: S. epidermidis ATCC 31432; assay: In vitro antibacterial evaluation, MIC by agar dilution, S. epidermidis ATCC 31432; conditions: Staphylococcus epidermidis, ATCC31432
In short: as §1

[3] = system: P. aeruginosa ATCC 27853; assay: In vitro antibacterial evaluation, MIC by agar dilution, P. aeruginosa ATCC 27853; conditions: Pseudomonas aeruginosa, ATCC27853, read-out: MIC
In short: as §1

[4] = system: S. aureus Col8A (Meth^S)(lac^-); assay: In vitro antibacterial evaluation, MIC by agar dilution, S. aureus Col8A; conditions: Staphylococcus aureus
In short: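 Log-phase isolates were spot-inoculated at about 10^4 cfu onto Mueller-Hinton agar carrying duplicate two-fold compound levels, 128 μg/mL to ≤0.25 μg/mL, following NCCLS (1991). Plates were read after 16-20 h at 35°-36° C. The lowest growth-inhibiting concentration gave the MIC (μg/ml).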

[5] = system: E. faecalis ATCC 29212; assay: In vitro antibacterial evaluation, MIC by agar dilution, E. faecalis ATCC 29212; conditions: Enterococcus faecalis, ATCC29212; E. faecalis ATCC 29212; read-out: MIC
In short: as §1

[6] = system: E. coli ATCC 25922; assay: In vitro antibacterial evaluation, MIC by agar dilution, E. coli ATCC 25922; conditions: Escherichia coli, ATCC25922, read-out: MIC
In short: as §1

[7] = system: S. haemolyticus (Meth^R); assay: In vitro antibacterial evaluation, MIC by agar dilution, S. haemolyticus; conditions: Staphylococcus haemolyticus, read-out: MIC
In short: as §1

[8] = system: S. aureus ATCC 25923; assay: In vitro antibacterial evaluation, MIC by agar dilution, S. aureus ATCC 25923; conditions: Staphylococcus aureus, ATCC25923
Procedure: The compounds of the invention were evaluated against several β-lactamresistant bacteria strains by determining the minimum inhibitory concentration (MIC, μg/ml) of each compound with respect to each strain. The MIC, the lowest concentration of antibiotic which inhibits growth of the test organism, was determined by the agar dilution method.
To determine the MIC for bacterial isolates, the test compound was incorporated in a series of two-fold dilutions into liquified Mueller-Hinton agar. Upon solidification, a number of different bacterial strains were spot inoculated with a replicating device onto the agar surface. […] The procedures used in these studies have been standardized by the National Committee for Clinical Laboratory Standards (NCCLS), as per the NCCLS publication entitled METHODS FOR DILUTION ANTIMICROBIAL SUSCEPTIBILITY TESTS (1991), which is incorporated herein by reference.
Aliquots of antimicrobial agents were prepared in phosphate buffered saline (PBS) at pH 7.2. Tween 20 or DMSO was used as a solubilizing vehicle as needed. Standard methods of vortexing, sonicating and gentle heat were used to facilitate solubilizing the test agent. Typically, the concentration of the stock solution was 10× that of the highest drug concentration tested. A 1.28 mg/mL stock solution was used with a subsequent highest working concentration of 128 μg/mL. Serial two-fold dilutions were done through ≤0.25 μg/mL. Each drug level was tested in duplicate. Two-fold drug dilutions were done in sterile 50 mL tubes with a final drug volume of 5 mL. Upon the addition of 45 mL of molten agar, a 10-fold dilution resulted. Two, 25 mL. plates were then poured into 15×150 mm square Petri plates with grids and allowed to harden.
A control plate with a reference drug, either cefotaxime, vancomycin or imipenem, was used as the positive growth control. Stock concentrations of reference antibiotics were prepared and frozen at -80° C. Upon preparation, the control plates were sealed and stored in the refrigerator for up to 1 week prior to use; however, imipenem control plates had to be prepared just prior to use. All test plates were used within 24 hours of preparation.
Satisfactory results were obtained where the inoculum contained about 10^4 colony forming units (cfu) ±0.5 logs. Starting with pure cultures of the test isolates on agar plates, a few isolated colonies were transferred to a tube of nutrient broth and allowed to grow 4-6 hours at 35°-36° C. to reach log-phase growth. Dropwise addition of the broth culture to PBS was done to match a 0.5 McFarland turbidity standard equal to 10^8 cfu/mL. This was further diluted ten-fold in PBS to reach a working inoculum concentration of 10^7 cfu/mL. When 1 μL of the working inoculum was applied to the agar surface a concentration of about 10^4 cfu per spot was obtained.
Disposable sterile 1 μL loops were used to inoculate test plates, with each isolate in a designated grid on the agar plate. An alternate method of inoculation involved the use of a replica plater, a device with 48 steel pins allowing the simultaneous inoculation of multiple isolates. After the spots had dried, the plates were incubated at 35°-36° C. for 16-20 hours. Endpoints were assessed as the minimum inhibitory concentration (MIC) of antimicrobial agent.

[9] = system: S. aureus 76 (Meth^R)(lac^+); assay: In vitro antibacterial evaluation, MIC by agar dilution, S. aureus 76; conditions: Staphylococcus aureus, read-out: MIC
In short: as §1

[10] = S. epidermidis ATCC 31432, read-out: MIC
[11] = S. aureus ATCC 25923, read-out: MIC

Compound	MIC [1] [µg/mL]	MIC [2, 10] [µg/mL]	MIC [3] [µg/mL]	MIC [4] [µg/mL]	MIC [5] [µg/mL]	MIC [6] [µg/mL]	MIC [7] [µg/mL]	MIC [8, 11] [µg/mL]	MIC [9] [µg/mL]	MIC [2] [µg/mL]	MIC [8] [µg/mL]
N#Cc1ccc(SC2=C(C(=O)O)N3C(=O)[C@@H](NC(=O)Cc4ccccc4)[C@H]3SC2)c([N+](=O)[O-])c1 [Cmpd 49, (7R)-7-[(Phenylacetyl)amino]-3-(4-cyano-2-nitrophenylthio)-3-cephem-4-carboxylic acid]	4 (≈ 8.06 µM)	< 0.25	> 32	0.5 (≈ 1.01 µM)	4 (≈ 8.06 µM)	> 32	32 (≈ 64.4 µM)	< 0.25	16 (≈ 32.2 µM)	–	–
O=Cc1ccccc1SC1=C(C(=O)O)N2C(=O)[C@@H](NC(=O)Cc3ccccc3)[C@H]2SC1 [Cmpd 50, (7R)-7-[(Phenylacetyl)amino]-3-(2-formylphenylthio)-3-cephem-4-carboxylic acid]	4 (≈ 8.8 µM)	–	> 32	< 0.25	4 (≈ 8.8 µM)	8 (≈ 17.6 µM)	8 (≈ 17.6 µM)	–	8 (≈ 17.6 µM)	< 0.25	< 0.25
O=C(Cc1ccccc1)N[C@@H]1C(=O)N2C(C(=O)O)=C(Sc3cccc4c3CCCC4)CS[C@H]12 [Cmpd 56, (7R)-7-[(Phenylacetyl)amino]-3-(5,6,7,8-tetrahydronaphthalen-1-ylthio)-3-cephem-4-carboxylic acid]	4 (≈ 8.32 µM)	–	> 32	< 0.25	2 (≈ 4.16 µM)	> 32	16 (≈ 33.3 µM)	–	4 (≈ 8.32 µM)	< 0.25	< 0.25
O=C(Cc1ccccc1)N[C@@H]1C(=O)N2C(C(=O)O)=C(Sc3ccc4ccccc4c3Br)CS[C@H]12 [Cmpd 57, (7R)-7-[(Phenylacetyl)amino]-3-(1-bromo-naphthalen-2-ylthio)-3-cephem-4-carboxylic acid]	1 (≈ 1.8 µM)	–	32 (≈ 57.6 µM)	< 0.25	2 (≈ 3.6 µM)	32 (≈ 57.6 µM)	4 (≈ 7.2 µM)	–	2 (≈ 3.6 µM)	< 0.25	< 0.25
O=C(Cc1ccccc1)N[C@@H]1C(=O)N2C(C(=O)O)=C(Sc3ccc(CSC4=NCCN4)cc3I)CS[C@H]12 [Cmpd 59, (7R)-7-[(Phenylacetyl)amino]-3-(4-(2-imidazolin-2-ylthiomethyl)-2-iodophenylthio)-3-cephem-4-carboxylic acid]	4 (≈ 6 µM)	–	> 32	< 0.25	4 (≈ 6 µM)	> 32	16 (≈ 24 µM)	–	8 (≈ 12 µM)	< 0.25	< 0.25
N=C(N)NC(=N)SCc1ccc(SC2=C(C(=O)O)N3C(=O)[C@@H](NC(=O)Cc4ccccc4)[C@H]3SC2)c(I)c1 [Cmpd 60, (7R)-7-[(Phenylacetyl)amino]-3-(4-(N-amidino)isothiouroniummethyl-2-iodophenylthio)-3-cephem-4-carboxylate, inner salt]	1	–	> 32	< 0.25	1	> 32	4 to 8	–	4	< 0.25	< 0.25
N=C(NCCN1CCOCC1)SCc1ccc(SC2=C(C(=O)O)N3C(=O)[C@@H](NC(=O)Cc4ccccc4)[C@H]3SC2)c(I)c1 [Cmpd 61, (7R)-7-[(Phenylacetyl)amino]-3-(4-(N-morpholinoethyl)isothiouroniummethyl-2-iodophenylthio)-3-cephem-4-carboxylate, inner salt]	4	< 0.25	> 32	0.5	4	> 32	> 32	< 0.25	16	–	–
CN(C)C(SCc1ccc(SC2=C(C(=O)[O-])N3C(=O)[C@@H](NC(=O)Cc4ccccc4)[C@H]3SC2)c(I)c1)=[N+](C)C [Cmpd 62, (7R)-7-[(Phenylacetyl)amino]-3-(4-tetra-methylisothiouroniummethyl-2-iodophenylthio)-3-cephem-4-carboxylate, inner salt]	4	–	> 32	< 0.25	2	> 32	32	–	16	< 0.25	< 0.25
N=C(N)SCc1ccc(SC2=C(C(=O)O)N3C(=O)[C@@H](NC(=O)Cc4ccccc4)[C@H]3SC2)cc1 [Cmpd 63, (7R)-7-[(Phenylacetyl)amino]-3-(4-isothiouroniummethylphenylthio)-3-cephem-4-carboxylate, inner salt]	1	–	> 32	< 0.25	1	8	32	–	16	< 0.25	< 0.25
N#CCC(=O)N[C@@H]1C(=O)N2C(C(=O)O)=C(Sc3ccc(CSC(=N)N)cc3I)CS[C@H]12 [Cmpd 66, (7R)-7-[(Cyanoacetyl)amino]-3-(4-isothiouroniummethyl-2-iodophenylthio)-3-cephem-4-carboxylate, inner salt]	1	–	> 32	< 0.25	4	> 32	8	–	8	< 0.25	< 0.25
C[n+]1cccc(SC2=C(C(=O)[O-])N3C(=O)[C@@H](NC(=O)Cc4ccccc4)[C@H]3SC2)c1-c1ccccc1 [Cmpd 82, (7R)-7-[(Phenylacetyl)amino]-3-(2-phenyl-N-methylpyridin-3-iumthio)-3-cephem-4-carboxylate]	4 (≈ 7.73 µM)	–	> 32	< 0.25	1 (≈ 1.93 µM)	> 32	32 (≈ 61.8 µM)	–	16 (≈ 30.9 µM)	< 0.25	< 0.25
O=C(Cc1ccccc1)N[C@@H]1C(=O)N2C(C(=O)[O-])=C(Sc3ccc[n+](Cc4ccccc4)c3-c3ccccc3)CS[C@H]12 [Cmpd 83, (7R)-7-[(Phenylacetyl)amino]-3-(2-phenyl-N-benzylpyridin-3-iumthio)-3-cephem-4-carboxylate]	2 (≈ 3.37 µM)	–	> 32	< 0.25	1 (≈ 1.68 µM)	> 32	32 (≈ 53.9 µM)	–	16 (≈ 26.9 µM)	< 0.25	< 0.25
O=C(Cc1ccc(Cl)cc1)N[C@@H]1C(=O)N2C(C(=O)O)=C(Sc3cccnc3-c3ccccc3)CS[C@H]12 [Cmpd 84, (7R)-7-[(4-Chlorophenylacetyl)amino]-3-(2-phenylpyridin-3-ylthio)-3-cephem-4-carboxylic acid]	1 (≈ 1.86 µM)	–	> 32	< 0.25	1 (≈ 1.86 µM)	> 32	8 (≈ 14.9 µM)	–	8 (≈ 14.9 µM)	< 0.25	< 0.25
